# Test results reported in patent publication EP0521692A2, “Inhibition of tumor cell metastasis potential and invasiveness by chemically-defined oligosaccharides, their derivatives, mimetics and antibodies directed to them” (The Biomembrane Institute, priority 1991, dated 1993).
# Columns and labels:
# [1] = biological target: T1, GMP-140 (Homo sapiens, UniProt P16109); assay: Binding of platelets to fluorescent polystyrene beads coated with GSL (flow cytometry); details: for Binding index, Ratio (Activated/ Non-activated): ratio of binding index of activated to non-activated platelets; for Binding index, Activated platelets: thrombin-activated platelets, GSL-coated sulfate-containing polystyrene beads, MFI relative to non-GSL-coated beads, means of four experiments
# T1 sequence (P16109 42-830): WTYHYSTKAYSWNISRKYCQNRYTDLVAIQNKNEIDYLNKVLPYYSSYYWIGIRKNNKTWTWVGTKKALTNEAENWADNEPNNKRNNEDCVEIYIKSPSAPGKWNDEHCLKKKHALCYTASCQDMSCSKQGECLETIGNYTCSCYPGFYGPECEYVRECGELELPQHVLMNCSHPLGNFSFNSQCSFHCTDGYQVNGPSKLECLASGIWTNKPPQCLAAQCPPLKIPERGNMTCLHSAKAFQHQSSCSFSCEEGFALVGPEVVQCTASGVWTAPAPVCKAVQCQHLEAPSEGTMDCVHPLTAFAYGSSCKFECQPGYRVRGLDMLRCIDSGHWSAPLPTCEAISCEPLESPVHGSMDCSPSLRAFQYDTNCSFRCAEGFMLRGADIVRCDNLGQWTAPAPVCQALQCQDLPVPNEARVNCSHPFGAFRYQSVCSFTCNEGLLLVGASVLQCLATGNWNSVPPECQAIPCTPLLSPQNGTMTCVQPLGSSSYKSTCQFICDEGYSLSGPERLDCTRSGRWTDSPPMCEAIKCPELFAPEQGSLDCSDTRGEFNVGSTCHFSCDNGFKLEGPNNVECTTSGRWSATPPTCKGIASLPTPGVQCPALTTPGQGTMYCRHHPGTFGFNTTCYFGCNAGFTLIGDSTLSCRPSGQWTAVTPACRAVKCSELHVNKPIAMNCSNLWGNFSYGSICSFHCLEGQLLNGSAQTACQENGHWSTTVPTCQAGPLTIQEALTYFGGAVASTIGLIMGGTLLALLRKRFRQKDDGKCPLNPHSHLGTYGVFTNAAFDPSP
# Protocol: Fluorescent plastic (e.g. polystyrene) beads (diameter ≈ 0.5 µm) are coated with GSL. GSLs are known to be strongly adsorbed on such beads, which allows construction of fluorescent probes containing specific GSLs. Platelets (activated or non-activated) are incubated with such GSL-coated beads, followed by determination of platelet fluorescence intensity by flow cytometry.
# Platelets were isolated from"platelet-rich plasma"obtained from the Oregon Red Cross (Portland, OR), and contaminating red blood cells were removed by centrifugation at 80xg for 10 min. Platelets were centrifuged at 300xg for 10 min, and suspended in Tyrode's buffer (pH 6.5) containing 22 mM citrate buffer with 0.35% bovine serum albumin (BSA). Platelet suspension (1x10⁸/ml) was incubated (pH 7.2, 37°C, 5 min) after addition of thrombin (final concentration 1 U/ml). The mixture was then incubated at 37°C for 10 min without stirring. Thrombin-activated platelets were fixed with an equal volume of 2% formaldehyde in phosphate-buffered saline (PBS), pH 7.2, and washed 2x with PBS containing 1% BSA.
# Activated and non-activated platelets were fixed with paraformaldehyde in Ca²⁺-free PBS, pH 7.2, washed 2x with Ca^2a+-containing PBS with 1% BSA, resuspended in CA^2a+-PBS with 1% BSA and 0.1% azide, and the number of platelets adjusted to ≈1x10⁹/ml. The cell suspension was stored at 4°C and the binding assay performed within 24 hr.
# Fluorescent polystyrene latex beads were obtained from Molecular Probe, Inc., Eugene, OR. They were yellow-green fluorescent beads with a sulfate group at the surface, diameter ≈0.5 µm (actually 0.486 µm). 1x10⁹ beads in 30 µl ETOH were added to 10 µg of GSL solution in 200 µl C=M, mixed well, and dried under an N₂ stream. The residue was resuspended in 200 µl ethanol, sonicated briefly, and dried under an N₂ stream. […]
# 20 µl of platelet (non-activated or activated) suspension ... paraformaldehyde-fixed -- containing ≈2x10⁷ platelets was mixed with 10 µl of fluorescent GSL-coated beads -- containing ≈2x10⁷ beads, mixed well, […] allowed to stand at 37°C for 30 min. The platelet suspension was mixed with 200 µl Ca²⁺-PBS and analyzed by flow cytometry (EPICS Profile, Coulter Cytometry, Hialeath, FL).
# Flow cytometric analyses of platelets alone and beads alone were performed for a gating set to include most signals produced by platelets by excluding signals produced by free beads. The binding index (BI) was calculated as mean fluorescence intensity (MFI) of platelets incubated with fluorescent GSL-coated beads, divided by MFI of platelets incubated with fluorescent non-GSL-coated (control) beads. […]
# [2] = tested on: BL6 clone of B16 melanoma cell line; assay: Lung colony formation after i.v. injection of BL6 cells preincubated with oligosaccharide; type: in vivo, C57/BL mice; details: for reductions of metastatic colonies in lung: BL6 cells preincubated with the sugar, then intravenous injection, 0.1 M, 37°C, 10 minutes in the majority of experiments; for total colony number reduced to % of control value: second independent series (Figure 1): preincubation with 0.1 M, 2 x 10^4 cells i.v., counted at 21 days
# Protocol: The highly metastatic BL6 clone of B16 melanoma cell line was obtained originally from Dr. Jean Starkey (Montana State Univ., Bozeman, MT), and clones were reselected in syngeneic C57/BL mice according to their metastatic potential. C57/BL mice were maintained in plastic cages under filtered air atmosphere and provided with water and food pellets ad lib. Cells were cultured in RPMI 1640 supplemented with 2 mM glutamine and 10% fetal calf serum (FCS), and detached with phosphate buffered saline (PBS) containing 2 mM EDTA. Viability was tested by trypan blue exclusion test.
# A suspension of BL6 cells (1-3 x 10⁶ cells/ml RPMI 1640 medium) was prepared and aliquots were incubated in the presence or absence of various oligosaccharides at various concentrations, at 37°C for 5-10 minutes. Following incubation, typically, 3 x 10⁴ or 2 x 10⁴ cells (with or without oligosaccharide pretreatment) per 200 µl were injected via tail vein into 8-week-old female mice. After 18-21 days, mice were killed, lungs were fixed in 10% formaldehyde in PBS (pH 7.4), and tumor cell colonies were counted under a dissecting microscope, thus providing background values of metastatic melanoma colony number in lung under these conditions. Data on number and size of colonies were statistically treated by the analysis of variance (ANOVA) procedure. Colonies with a diameter of 1 mm or greater were considered large-size and those with a diameter less than 1 mm were considered small-size.
# (§1) For one experiment, BL6 cells were incubated with various concentrations of lactose, lacto-N-tetrose (Galβ1→3GlcNAcβl→3Galβ1→4GLc), methyl β-D-lactoside, or phenyl β-D-thiolactoside for various durations. In the majority of experiments, a concentration of 0.1 M was used and cells were incubated at 37°C for 10 minutes, separated from sugar-containing medium by mild centrifugation at 400 x g for 10 minutes, resuspended in RPMI 1640, and injected (3 x 10⁴ cells in 0.2 ml suspension) via tail vein. For some experiments, 2 x 10⁴ cells were injected and colonies were counted at 21 days. Viability and cell growth ability of BL6 cells after incubation in various sugar solutions were tested by trypan blue exclusion test, and by plating in RPMI 1640 culture under normal conditions in vitro, as well as by subcutaneous inoculation in age-matched C57/BL mice in order to test tumor growth.
# [3] = tested on: melanoma cell (BL6) adhesion on LacCer; assay: Melanoma cell adhesion on LacCer-coated solid phase; type: cell-based, mouse; details: Figure 5, Panel A
# Description: Figure 4 graphically illustrates that melanoma cell adhesion on LacCer is based on GM3-LacCer interaction. The order of metastatic potential is BL6>F10>F1>>WA4.
# (§2) Figure 5 graphically illustrates the melanoma cell (BL6) adhesion on LacCer (Panel A) and on endothelial cells (HuVEC) (Panel B) are inhibited by LacCer and GM3.
# [4] = tested on: BL6 cells; assay: In vitro cell growth and thymidine incorporation after incubation with sugar; type: cell-based, mouse
# Protocol: as §1
# [5] = tested on: B16 melanoma cells; assay: Lung colony formation, oligosaccharide injected i.p. before i.v. inoculation of tumor cells; type: in vivo, C57/BL mice; details: 1 ml of 0.25 M or 0.5 M i.p., 10 minutes before i.v. B16 melanoma cells; colonies counted 19 days later (Figure 2)
# Protocol: Figure 2 graphically illustrates the effect of prior administration of methyl β-D-lactoside on the number and size of lung colony deposits of BL6 cells. Methyl β-D-lactoside (1 ml dosage) was injected intraperitoneally into C57/BL mice. After 10 minutes, B16 melanoma cells were injected intravenously. Lung colonies were counted and sized at 19 days. Group A represents control animals (not administered methyl β-D-lactoside) and groups B and C represent animals injected with 0.25 M and 0.5 M methyl β-D-lactoside, respectively. For each group, column 1 represents the total number of colonies, column 2 the number of colonies with diameter > 1 mm, and column 3 the number of colonies with diameter < 1 mm. Number of experiments is expressed as "n".
# In a separate experiment, the effect of methyl β-D-lactoside on melanoma cell metastasis was determined after administration of the oligosaccharide, followed by inoculation with tumor cells. Specifically, a one ml dosage of methyl β-D-lactoside (at a concentration of 0.25 M or 0.5 M) was injected intraperitoneally in mice. After 10 minutes, B16 melanoma cells were injected intravenously. Lung colonies were counted 19 days later.
# [6] = tested on: melanoma cell (BL6) adhesion on endothelial cells (HuVEC); assay: Melanoma cell adhesion on endothelial cells; type: cell-based, mouse; details: Figure 5
# Description: as §2
# GM3 interacts with LacCer, which is highly expressed on endothelial cells. The order of adhesion of the B16 variants onto LacCer-coated solid phase or onto endothelial cells was also in the same order as their metastatic potential. In contrast, integrin-dependent adhesion of the B16 variants was approximately equal for BL6, F10, and F1 (see Figure 4).
Compound,"Binding index, Ratio (Activated/ Non-activated) [1]","Binding index, Activated platelets [1]",reductions of metastatic colonies in lung [2] [%],total colony number reduced to % of control value [2] [%],effect on cell number increase [4],effect on thymidine incorporation [4],other results
"NeuAcα2→3Galβ1→4GlcNAcβ1→3Galβ1→R [SPG, reference compound]",0.7 ± 0.2,0.8 ± 0.2,–,–,–,–,–
OC[C@H]1O[C@@H](O[C@H]2[C@H](O)[C@@H](O)C(O)O[C@@H]2CO)[C@H](O)[C@@H](O)[C@H]1O (stereo partly drawn) [Lactose],–,–,26,–,–,–,–
NeuAcα2→3Galβl→4Glcβl→Cer [GM3],0.7 ± 0.5,1.0 ± 0.1,–,–,–,–,melanoma cell (BL6) adhesion on LacCer [3]: inhibited
"CC(=O)N[C@H]1[C@H](O[C@H]2[C@@H](O)[C@@H](CO)O[C@@H](O[C@H]3[C@H](O)[C@@H](O)C(O)O[C@@H]3CO)[C@@H]2O)O[C@H](CO)[C@@H](O)[C@@H]1O[C@@H]1O[C@H](CO)[C@H](O)[C@H](O)[C@H]1O (stereo partly drawn) [lacto-N-tetrose, Galβ1→3GlcNAcβl→3Galβl→4Glc]",–,–,36,–,–,–,–
OC[C@H]1O[C@@H](O[C@H]2[C@H](O)[C@@H](O)[C@H](Sc3ccccc3)O[C@@H]2CO)[C@H](O)[C@@H](O)[C@H]1O [phenyl β-D-thiolactoside],–,–,–,50,slight in vitro stimulatory effect,slight in vitro stimulatory effect,–
CO[C@@H]1O[C@H](CO)[C@@H](O[C@@H]2O[C@H](CO)[C@H](O)[C@H](O)[C@H]2O)[C@H](O)[C@H]1O [methyl β-D-lactoside],–,–,–,35,slight in vitro stimulatory effect,slight in vitro stimulatory effect,lung metastatic colony formation [5]: significant reduction; B16 melanoma adhesion on endothelial cells [6]: inhibited; reduction of metastatic lung colony number compared to control ([2]; BL6 cells treated with 0.005 M): 8%; reduction of metastatic lung colony number compared to control ([2]; BL6 cells treated with 0.01 M): 16%; reduction of metastatic lung colony number compared to control ([2]; BL6 cells treated with 0.1 M): 43%
